Test results as given in PubChem BioAssay (NCI).
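Compound exposure: 48 hours, 5 concentrations, 96-well plates. Here, GI50 denotes the concentration required for 50% inhibition of growth. Definition used: TGI = concentration required for complete inhibition of growth.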

What was measured:
Test in all cases: growth of human tumour cells (NCI), 48 h
PC-3 prostate = system: PC-3 prostate
HCT-15 colon = system: HCT-15 colon
SK-MEL-28 melanoma = system: SK-MEL-28 melanoma
MDA-MB-231 breast = system: MDA-MB-231 breast
786-0 renal = system: 786-0 renal
DMS 114 small cell lung = system: DMS 114 small cell lung
SNB-78 CNS = system: SNB-78 CNS

| Compound | TGI (PC-3 prostate) | TGI (HCT-15 colon) | TGI (SK-MEL-28 melanoma) | TGI (MDA-MB-231 breast) | TGI (786-0 renal) | GI50 (PC-3 prostate) | GI50 (HCT-15 colon) | GI50 (SK-MEL-28 melanoma) | GI50 (MDA-MB-231 breast) | GI50 (786-0 renal) | TGI (DMS 114 small cell lung) | TGI (SNB-78 CNS) |
| --- | --- | --- | --- | --- | --- | --- | --- | --- | --- | --- | --- | --- |
| CC1C(=O)OC2CC[N+]3([O-])CC=C(COC(=O)C(C)(O)C1(C)O)C23 (configuration not stated) | > 100 µM | > 100 µM | > 100 µM | > 100 µM | > 100 µM |  |  |  |  |  |  |  |
| CC(O)CC(O)(C(F)(F)F)C(F)(F)F (configuration not stated) | > 10 µM | > 10 µM | > 10 µM | > 10 µM | > 10 µM |  |  |  |  |  |  |  |
| O=C1CSC(c2ccc(-c3nc4ccccc4s3)cc2)=N1 | > 100 µM | > 100 µM | > 100 µM | > 100 µM | > 100 µM | > 100 µM | 51.9 µM | 87.2 µM | 24.1 µM | 77.2 µM |  |  |
| CC1=CC(=O)C(C(O)(C(F)(F)F)C(F)(F)F)C(C)(C)C1 (configuration not stated) | > 10 µM | > 10 µM | > 10 µM | > 10 µM | > 10 µM |  |  |  |  |  |  |  |
| O=C(OCc1ccc2c(Cl)cc(Cl)c(O)c2n1)N1CCN(C(=O)c2cc3cc(F)ccc3[nH]2)CC1 | > 100 µM | > 100 µM | > 100 µM | > 55.6 µM | > 100 µM | 1.59 µM | 1.14 µM | 87 µM | 1.07 µM | 4.3 µM |  |  |
| Cc1ncc([N+](=O)[O-])n1CCNS(=O)(=O)CCCn1ncnc1[N+](=O)[O-] | > 100 µM | > 100 µM | > 100 µM | > 100 µM | > 100 µM |  |  |  |  |  |  |  |
| COc1ccc(Cc2cnc(NC(=O)c3ccc4c(c3)OCCO4)s2)cc1 | > 100 µM | > 100 µM | > 83.8 µM | 22.6 µM | > 74.3 µM | 0.0303 µM | 0.0167 µM | 3.75 µM | 0.0379 µM | 0.0493 µM |  |  |
| O=C(O)C12CC3(C(=O)O)CC(C(=O)O)(CC(C(=O)O)(C1)C3=O)C2=O | > 100 µM | > 100 µM | > 100 µM | > 100 µM | > 100 µM |  |  |  |  |  |  |  |
| COCOc1ccc(C2(O)Oc3cc(OCOC)ccc3C2C)c(O)c1 (configuration not stated) | 26.3 µM | 22.3 µM | 31 µM | 25.3 µM | 31.6 µM |  |  |  |  |  |  |  |
| CCC(=O)Nc1ccc(N=NN(C)C)cc1 | > 100 µM | > 100 µM | > 100 µM | > 100 µM | > 100 µM |  |  |  |  |  |  |  |
| C[C@]12CC[C@@H]3c4ccc(O)c([N+](=O)[O-])c4CC[C@H]3[C@@H]1CC[C@@H]2NS(=O)(=O)c1cccc(Br)c1 | 11.1 µM | 3.09 µM | 3.67 µM | 4.14 µM | 7.5 µM | 2.56 µM | 1.59 µM | 1.85 µM | 1.85 µM | 2.7 µM |  |  |
| C[C@H]1CCC/C=C/[C@@H]2C[C@H](O)C[C@H]2[C@H](O)[C@@H](SCC(O)CO)CC(=O)O1 (some centres not stated) | > 100 µM | 46.2 µM | > 100 µM | 28.1 µM | 15 µM | 32.8 µM | 18.9 µM | 13.3 µM | 12.1 µM | 2.75 µM |  |  |
| N#Cc1ccc(OC(=O)Nc2ccc(Cl)c(Cl)c2)cc1 | 21.6 µM | 13.8 µM | > 100 µM | 23.3 µM | 61.2 µM | 2.87 µM | 2.94 µM | 5.53 µM | 4.42 µM | 4.83 µM |  |  |
| C=CCN1CC2CON(C(=O)C(OC)(c3ccccc3)C(F)(F)F)C2C1C(C)C (configuration not stated) |  |  |  |  |  |  | 35.6 µg/mL | 52.9 µg/mL | 41.4 µg/mL | 26.7 µg/mL |  |  |
| CC[C@@]1(O)C(=O)OCc2c1cc1n(c2=O)Cc2c-1nc1cc(F)c(C)c3c1c2[C@@H](N)CC3 | > 100 µM | > 100 µM |  | > 100 µM |  | 0.02 µM | 0.0215 µM |  | 0.162 µM | < 0.01 µM |  |  |
| Nc1ccc2nc3n(c2c1)C(=O)c1ccccc1-3 | > 100 µM | > 100 µM | > 100 µM |  | > 100 µM |  |  |  |  |  |  |  |
| Cn1cc(-c2ccc(-c3cncc(Cl)c3N3CCC4(CCNC4=O)CC3)cc2)cn1 | > 100 µM | > 100 µM | > 100 µM | > 100 µM | > 100 µM | 47.3 µM | 40.1 µM | 79.2 µM | > 100 µM | 14.6 µM |  |  |
| CC/C=C/C/C=C/C/C=C/C/C=C/C/C=C/C/C=C/CCC(=O)Nc1ccn([C@@H]2O[C@H](CO)[C@@H](O)C2(F)F)c(=O)n1 | 52.3 µM | 41.3 µM | 25.8 µM | 28.9 µM | 25.5 µM | 6.65 µM | 1.82 µM | 11.5 µM | 7.65 µM | 0.0141 µM |  |  |
| C/C(=N\NC(=S)N1CC2CCC(CC2)C1)c1ccccn1 | 1.75 µM | 2.51 µM | 2.93 µM | 2.45 µM | 1.46 µM | 0.026 µM | 0.0313 µM | 0.767 µM | 0.156 µM | 0.152 µM |  |  |
| O=C(NCc1ccc(S(=O)(=O)c2cc(F)cc(F)c2)cc1)c1ccc2nccn2c1 | > 100 µM | > 100 µM | 98.1 µM | > 100 µM | > 100 µM |  | 0.0472 µM | > 39.8 µM | 20 µM | 30.7 µM |  |  |
| NC(=S)N/N=C/c1cc(-c2cccc(N)c2)ccn1 | > 100 µM | > 100 µM | > 100 µM | > 100 µM | 6.34 µM | 1.07 µM | 2.71 µM | 4.35 µM | 3.6 µM | 1.29 µM |  |  |
| CO/N=C(/C)c1cccc(Nc2cc(-c3ccccc3)nc3ccc(OC)cc23)c1 | 21.6 µM | 41.1 µM | 66.8 µM | 17.8 µM | 13.3 µM | 4.68 µM | 14.9 µM | 28.6 µM | 3.49 µM | 3.18 µM |  |  |
| CN(C)CCSc1nccc(-c2cc3ccccc3s2)n1 |  | 37.6 µM | 40.9 µM |  | 63.4 µM |  |  |  |  |  | 51.6 µM | 47.8 µM |
| Cc1nn(C(=O)c2ccc(Cl)cc2)c2c1C(c1ccc(O)cc1)SC(N)=N2 (configuration not stated) | > 10 µM | > 10 µM | > 10 µM | > 10 µM | > 10 µM |  |  |  |  |  |  |  |
| O=[N+]([O-])c1ccc(CSCc2ccc(Cl)cc2)cc1 | > 100 µM | > 100 µM | > 100 µM | > 100 µM | > 100 µM |  |  |  |  |  |  |  |
| O=C1C(Cl)=C(Nc2ccccc2O)C(=O)N1Cc1ccccc1 | 39.1 µM | 39.9 µM | 55.4 µM |  | 30.4 µM | 18.1 µM | 19.5 µM | 25.1 µM |  | 16.8 µM |  |  |
